Tests used:
eNOS [1] = molecular target: T1, eNOS (Rattus norvegicus, UniProt Q62600); experiment: NOS activity assay (conversion of L-[3H]arginine to L-[3H]citrulline) in sinusoidal endothelial cell lysates; format: cell-based; settings: cicletanine 100 nM plus inhibitor
T1 construct: endogenous in cells; host or cells: primary liver sinusoidal endothelial cells from male Sprague-Dawley rats (normal or bile-duct-ligated)
T1 sequence (Q62600 1-1202): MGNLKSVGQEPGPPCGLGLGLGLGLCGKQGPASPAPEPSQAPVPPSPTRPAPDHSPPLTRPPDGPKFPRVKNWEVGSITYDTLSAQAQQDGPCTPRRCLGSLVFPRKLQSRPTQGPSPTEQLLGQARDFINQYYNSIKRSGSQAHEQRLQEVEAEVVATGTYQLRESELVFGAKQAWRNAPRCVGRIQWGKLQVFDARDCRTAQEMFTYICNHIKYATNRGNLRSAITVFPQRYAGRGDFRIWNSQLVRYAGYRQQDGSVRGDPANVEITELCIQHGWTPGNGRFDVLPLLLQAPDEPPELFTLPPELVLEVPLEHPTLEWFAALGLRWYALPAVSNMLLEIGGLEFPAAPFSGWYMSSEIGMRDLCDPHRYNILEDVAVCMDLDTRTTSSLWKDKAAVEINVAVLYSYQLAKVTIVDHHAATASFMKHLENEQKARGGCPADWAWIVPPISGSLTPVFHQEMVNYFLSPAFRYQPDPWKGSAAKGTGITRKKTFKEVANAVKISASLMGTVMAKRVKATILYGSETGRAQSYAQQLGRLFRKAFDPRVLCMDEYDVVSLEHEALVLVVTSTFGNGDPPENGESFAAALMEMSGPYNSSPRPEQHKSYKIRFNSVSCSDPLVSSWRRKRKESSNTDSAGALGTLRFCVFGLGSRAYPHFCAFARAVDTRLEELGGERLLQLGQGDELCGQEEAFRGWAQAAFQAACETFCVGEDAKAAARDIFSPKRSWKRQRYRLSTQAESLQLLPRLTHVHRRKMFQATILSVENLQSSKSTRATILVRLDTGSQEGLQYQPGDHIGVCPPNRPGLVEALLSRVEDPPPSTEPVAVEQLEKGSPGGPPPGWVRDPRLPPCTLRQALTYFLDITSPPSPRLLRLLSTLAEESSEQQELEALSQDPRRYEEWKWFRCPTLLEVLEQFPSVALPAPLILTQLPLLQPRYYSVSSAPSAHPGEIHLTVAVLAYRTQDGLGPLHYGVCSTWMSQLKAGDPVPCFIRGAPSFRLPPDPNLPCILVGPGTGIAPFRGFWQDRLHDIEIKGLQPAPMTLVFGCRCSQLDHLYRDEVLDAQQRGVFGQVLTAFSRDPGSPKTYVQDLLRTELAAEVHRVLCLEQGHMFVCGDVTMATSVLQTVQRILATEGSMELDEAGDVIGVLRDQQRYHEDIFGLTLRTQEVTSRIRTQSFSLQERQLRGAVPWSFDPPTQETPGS
Experimental: (§1) Cell isolation and culture. Sinusoidal endothelial cells were isolated from male Sprague-Dawley rats (450-500 g) (Harlan, Indianapolis, Ind.). In brief, after in situ perfusion of the liver with 20 mg/100 mg pronase (Roche Molecular Biochemicals, Indianapolis, Ind.), followed by collagenase (Worthington Biochemical, Lakewood, N.J.), dispersed cell suspensions were removed from a layered discontinuous density gradient of 8.2 and 15.6% Accudenz (Accurate Chemical and Scientific, Westbury, N.Y.), further purified by centrifugal elutriation (18 ml/min flow), and were grown in medium containing 20% serum (10% horse/calf). The purity of endothelial cells was documented by their uptake of fluorescently labeled di-l-acetoacetylated low-density lipoprotein as described (21). Only primary sinusoidal endothelial isolates of >95% purity were used for study. Experiments were performed with cells frorrr a minimum three different isolations (for all experiments).
(§2) Animal model of liver injury and portal hypedension. Liver injury and portal hypertension were induced by performing bile duct ligation in 450- to 500-gram male retired breeder Sprague-Dawley rats as described in Liu and 20- to 25-gram male BALB/c mice. Briefly, bile duct ligation was performed by surgical isolation and ligation of the common bile duct. This model creates a portal-based fibrogenic response and portal hypertension 10-14 days after surgery (Liu). For study of injured sinusoidal endothelial cells, we used the rat model of bile duct ligation (10-14 days postsurgery); for in vivo study (primarily to conserve the use of active compound), we used the mouse model of bile duct ligation (examining portal pressure 4 wk postsurgery). In sham-operated rats or mice, laparotomy without isolation and section of the bile duct was performed. Studies were approved by the local Institutional Animal Care and Use Committees. Portal pressure measurement. Portal hypertension was induced in male BALB/c mice by bile duct ligation as above. Cicletanine (5 mg·kg^−1·day^−1) or vehicle was given by gavage as a single daily dose for 10 days before portal pressure measurement as described in Liue. In brief, mice were anesthetized, and an intravenous catheter (Becton Dickinson Vascular Access, Sandy, Utah) was introduced in the portal vein and secured with a silk tie. A calibrated low-pressure transducer (Digi-Med, Louisville, Ky.) was connected to the portal vein catheter, and portal pressure was recorded continuously using the Digi-Med Integrator 200 System (Digi-bled).
NOS activity assay. NOS activity from sinusoidal endothelial cell lysates was assessed by measuring the conversion of L-[3H]arginine to L-[3H]citrulline as described (6) per the manufacturer's instructions (Cayman Chemical). In brief, triplicate samples of cell lysates were incubated with a reaction buffer containing 3 pmol of L-[3H]arginine (45 Ci/mmol), 0-50 μM arginine, 1 mM NADPH, 100 nM calmodulin (CaM), 2 mM CaCl2, and 30 μM BH4 in a volume of 50-100 μl at room temperature for 30 min and at 37° C. for an additional 30 min in the presence and absence of 1 mM NG-nitro-L-arginine methyl ester (L-NAME). […] Radiolabeled counts per minute of generated L-citrulline were measured and used to determine L-NAME-inhibitable NOS activity (thus, each experiment included total counts and background counts). […] The reductase activities of sinusoidal endothelial cells with or without cicletanine exposure were determined using the NADPH-dependent cytochrome c assay. […]

[2] = system: NO production in sinusoidal endothelial cells; experiment: NO measurement (nitrite in conditioned medium of sinusoidal endothelial cells); format: cell-based, rat; settings: for effect on cicletanine-induced NO production: PD-98059 10 μM 30 min, then cicletanine 100 nM 2 h
Experimental: as §1, §2
NO measurement. To assess NO production, we analyzed the release of nitrite, the stable breakdown product of NO, using a nitrite/nitrate assay kit (Cayman Chemicals, Ann Arbor, Mich.), following the manufacturer's instructions. Briefly, conditioned medium from sinusoidal endothelial cells with or without cicletanine treatment were loaded on a 96-well plate and mixed with both enzyme cofactor and nitrate reductase. After incubation at room temperature for 3 h, 100 μl Griess reagent mix were added to each well. After 10 more minutes at room temperature, the absorbance of each well was determined on a microplate reader at 540 nm, and the nitrite concentrations were deduced from a standard curve.

protein kinase G (PKG) = experiment: Phospho-VASP immunoblotting for PKG activity in stellate cells alone or cocultured with sinusoidal endothelial cells; format: cell-based, rat; settings: coculture, L-NAME 1 μM 4 h, then cicletanine 100 nM
Experimental: For coculture experiments, freshly isolated stellate cells and freshly isolated sinusoidal endothelial cells were isolated separately and mixed together on collagen-coated plates and cultured for 5 days. Sinusoidal endothelial cells were plated at a density of 200,000 cells/cm2, and stellate cells were at a density of 65,000 cells/cm2.
(§3) Immunoblotting, Immunoblotting was performed by using specified primary antibodies, including anti-eNOS antibody (1:1,000; BD Transduction Laboratories, San Jose, Calif.), anti-phospho-eNOS-Ser^1177 (1:1,000; BD Transduction Laboratories or Cell Signaling Technology), anti-phospho-Akt, anti-Akt (Cell Signaling Technology, Beverly, Mass.), and horseradish peroxidase-conjugated secondary antibody. Specific signals were visualized using enhanced chemiluminescence as per the manufacturer's instructions and were scanned and quantitated with standard software.

eNOS [3] = experiment: eNOS phosphorylation (Ser1177) and total eNOS by immunoblotting in sinusoidal endothelial cells; format: cell-based, rat; settings: PD-98059 10 μM 30 min, then cicletanine 100 nM 2 h
Experimental: as §1, §3, §2

**Q.** Which results are given for COC(=O)[C@@H](N)CCCNC(=N)N[N+](=O)[O-] [L-NAME, NG-nitro-L-arginine methyl ester]?
**A.** effect on cicletanine-induced eNOS activity (eNOS [1]): inhibitable; effect on nitrite production ([2]; L-NAME 1 μM preexposure 4 h, then cicletanine 2 h): inhibited; effect on cicletanine-stimulated VASP phosphorylation (protein kinase G (PKG)): inhibited

**Q.** Which “effect on cicletanine-induced eNOS phosphorylation” value (eNOS [3]) does the source give for COc1cccc(-c2cc(=O)c3ccccc3o2)c1N [PD-98059] here?
**A.** Its value is “blocked”.

**Q.** And the “effect on cicletanine-induced eNOS phosphorylation” value (eNOS [3]; listed as PD-098059)?
**A.** Its value is “abolished”.

**Q.** And the “effect on cicletanine-induced NO production” value [2]?
**A.** The value was “blocked”.

**Q.** And the “effect on cicletanine-induced NO production” value ([2]; listed as PD-098059)?
**A.** The value was “abolished”.

**Q.** For Cc1ncc2c(c1O)COC2c1ccc(Cl)cc1 (centres unmarked) [S-cicletanine], which “production of nitrite, (+) isomer compared with (−) isomer” value ([2]; comparison of isomers) is on record?
**A.** The value was “more effective than the (−) isomer of cicletanine”.
